From PMC3169413 (Acta Crystallographica Section F: Structural Biology and …, 2011)

Assays:
[1] = molecular target: FumC (fumarate hydratase) from R. prowazekii (Rickettsia prowazekii, UniProt Q9ZCQ4); conditions: active site; product analog; from crystallization precipitant, 1.4 M sodium malonate pH 6.0, 289 K; one malonate per protomer
[2] = molecular target: the molecule itself; assay: crystal structure

O=C(O)CC(=O)O [malonate]
X-ray crystal structure, 2.4 A [1]: The R. prowazekii FumC structure was determined in complex with the product analog malonate.

B1: fumarate hydratase (FumC) from Rickettsia prowazekii strain Madrid E (enzyme)
chain: MKNYRIESDSFGEIQIEEKFYWGAQTQRSLNNFKISKQKMPKILIRALAILKKCAAQVNYEFGDLEYKIATSIDKAIDRILAGEFEDNFPLVVWQTGSGTQTNMNMNEVIASIANEELTGKKGGKFPVHPNDHVNKGQSSNDSFPTAMHIATVLATKQQLIPALNNLLTYLQDKSKDWDKIIKIGRTHLQDATPLTLKQEFSGYITQIEYALERIEDALKKVYLLAQGGTAVGTGINSKIGFDIKFAQKVAEFTQQPFKTAPNKFESLAAHDALVEFSGTLNTIAVSLMKIANDIRLLGSGPRCGLGELHLPENEPGSSIMPGKVNPTQVEALTMVCTQVMGNHVTVTIAGSNGHLELNVFKPVIIYNILQSIELLSDSVNSFVTHCVKGLEPNIARINTLRDKSLMLVTVLNPHIGYDNAAKIAKEAHKYGITLKEAAKKLNFLSEEEFDKIVVPEKMIS
notes: also called fumarase; class II fumarate hydratase
binding result [2]: binds
